Experimental findings from patent US9062041B2 (Bayer Intellectual Property GmbH, priority 2011, dated 2015) are described below.

Each structure is given as a SMILES string.

The target of one experiment is T1, human PGD receptor (Homo sapiens, UniProt Q13258).
T1 sequence (Q13258 1-359): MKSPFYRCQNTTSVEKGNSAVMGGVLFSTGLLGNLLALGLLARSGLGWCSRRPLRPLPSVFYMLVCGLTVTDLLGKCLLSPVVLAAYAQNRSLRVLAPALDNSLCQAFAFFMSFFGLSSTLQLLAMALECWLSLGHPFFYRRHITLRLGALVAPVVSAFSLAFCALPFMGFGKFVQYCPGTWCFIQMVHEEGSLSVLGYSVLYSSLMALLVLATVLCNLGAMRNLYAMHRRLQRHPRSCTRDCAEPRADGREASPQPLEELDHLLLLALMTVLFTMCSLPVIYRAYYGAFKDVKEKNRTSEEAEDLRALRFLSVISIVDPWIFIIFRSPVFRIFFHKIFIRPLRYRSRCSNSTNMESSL
As to the kind of experiment: cAMP antagonism test on the human prostaglandin D receptor (HTRF cAMP detection). Type of experiment: cell-based. The conditions noted are these: selectivity towards hDP, IC50 measured by cAMP antagonism test. The gist of the method:
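Cells pre-mixed with cAMP-d2 were preincubated with compound (0.8 nM–16.5 μM) for 20 min at RT, then stimulated with 3× PGD2 solution (6 nM, in PBS-IBMX) for 30 min at RT. After lysis (20 min), HTRF read at 665/620 nm; antagonism seen as rise in FRET ratio.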

Experiment [1] concerns ovulated cumulus-oocyte complexes. In words: In-vivo action on post-ovulatory in-vitro fertilization. Further details: species or system mice (strain: B6D2F1). The conditions noted are these: mice. An excerpt: 4.3 In-Vivo Action on Post-Ovulatory In-Vitro Fertilization: Substances can exert an influence on fertility by decreasing the fertilizability of oocytes or cumulus-oocyte complexes. In order to study such effects, substances can be administered in vivo and subjected to in vitro fertilization after ovulation of cumulus-oocyte complexes has taken place. The in-vitro fertilization rate, where no test substance is any longer present, allows conclusions as to the in-vivo effects of the test substances. Immature female mice (strain: B6D2F1, Charles River, Suelzfeld, age: 19-25 days) were kept in Macrolon cages in rooms with controlled illumination (12 hrs darkness: 12 hrs light), fed with a standard diet and provided with drinking water ad libitum. The mice were primed with PMSG (pregnant mare serum gonadotropin) (10 IU/animal i.p.). After 48 hours, a stimulus triggering ovulation was created in the animals by one administration of 10 IU/animal i.p. (hCG, human chorionic gonadotropin). The test substances were dissolved in benzyl benzoate/castor oil (1+4 v/v) and administered in a volume of 0.1 ml s.c. 1 hour before hCG (n=5 animals per group). Fourteen hours after hCG administration, the animals were killed. Ovulated oocytes and cumulus-oocyte complexes were obtained from the bursa ovarii and/or oviduct and subjected to in-vitro fertilization, wherein for the fertilization a sperm count of 40000 sperms/0.5 ml was used for 1 hour. Twenty-four hours after the incubation with the sperms, the number of fertilized oocytes is established and the percentage fertilization rate determined.

Experiment [2] relates to female cynomolgus monkeys (Macaca Fascicularis). In words: In-vivo action on fertility in non-human primates (mating study). The conditions noted are these: 6 months, 10 mg/kg (Example 17 once daily, Example 56 twice daily). The method, then:
4.4 In-Vivo Action on Fertility in Non-Human Primates (Cynomolgus):
In order to study the effect of substances on fertility, mating studies can be performed in monkeys (Jensen et al. Contraception 81 (2010) 165-171). For this, the test substances are administered to female cynomolgus monkeys (Macaca Fascicularis) which are being kept in groups, then the animals are mated with a male animal. Matings are checked for by sperm detection in daily vaginal smears. Pregnancies resulting therefrom are identified by hormone determinations and ultrasound examinations. Through the changes in the serum oestradiol concentrations during the cycle, (rise before the midcycle LH peak), the fertile phase within a cycle of the individual animals can be determined Matings in this fertile period are described as “timed matings” (matings in the fertile phase). Apart from the absolute number of pregnancies occurring, the effect on the fertility can also be expressed as pregnancies per “timed matings”.
To test the action of EP2 receptor antagonists on fertility in monkeys, Examples 17 and 56 according to the invention were administered over 6 months, dissolved in 0.5 ml castor oil. Example 17 was administered once daily at a dosage of 10 mg/kg (n=10 animals), while Example 56 was administered twice daily at a dosage of 10 mg/kg (n=9 animals). Only the vehicle was administered to a control group (n=10 animals). In the first month of the treatment, no male animal was placed with the female animals. After this, female and male animals were kept together over 5 months, with detection of pregnancies and cycle monitoring.

As to `COCCNC(=O)c1ccc2nn(CC3CCN(C(=O)c4ccc(Oc5ccc(C(F)(F)F)cc5)cc4)CC3)cc2c1C` [Example 17, N-(2-methoxyethyl)-4-methyl-2-[(1-{4-[4-(trifluoromethyl)-phenoxy]benzoyl}-piperidin-4-yl)-methyl]-2H-indazol-5-carboxamide], the “Selectivity hEP2/hDP” value on human PGD receptor was “xxx (xxx > 100)”. Moreover, the “% fertilization with 1 mg/kg” value in experiment [1] (1 mg/kg s.c. 1 hour before hCG, in-vitro fertilization rate) was found to be 20 ± 10%. Moreover, in experiment [1] (5 mg/kg s.c. 1 hour before hCG, in-vitro fertilization rate), the “% fertilization with 5 mg/kg” value was determined as 9 ± 1%. For the same compound, in experiment [1] (10 mg/kg s.c. 1 hour before hCG, in-vitro fertilization rate), the “% fertilization with 10 mg/kg” value stood at 8 ± 4%. Moreover, the “influence on the fertilizability of ovulated cumulus-oocyte complexes” value in experiment [1] (in-vivo administration) is reported as “dose-dependent influence”. Besides, in experiment [2], the “% Pregnancies/"timed mating"” value is 6% and the Pregnancies was found to be 3.
As for `COCCNC(=O)c1ccc2nn(CC3CCN(C(=O)c4ccc(-c5ccc(F)cc5)cc4F)CC3)cc2c1C` [Example 42, 2-({1-[(3,4′-difluoro-biphenyl-4-yl)-carbonyl]piperidin-4-yl}methyl)-N-(2-methoxyethyl)-4-methyl-2H-indazol-5-carboxamide], the “Selectivity hEP2/hDP” value on human PGD receptor is given as “xxx (xxx > 100)”.
On the same count and under the same terms, with `COCCNC(=O)c1ccc2nn(CC3CN(C(=O)c4ccc(Cl)cc4)C3)cc2c1C` [Example 117, 2-{[1-(4-chlorobenzoyl)azetidin-3-yl]methyl}-N-(2-methoxyethyl)-4-methyl-2H-indazol-5-carboxamide] the entry was “xxx (xxx > 100)”; with `Cc1c(C(=O)NCC(F)(F)F)ccc2nn(CC3CCN(C(=O)c4ccc(Oc5ccc(F)cc5)cc4)CC3)cc12` [Example 283, 2-({1-[4-(4-fluorophenoxy)benzoyl]piperidin-4-yl}methyl)-4-methyl-N-(2,2,2-trifluoroethyl)-2H-indazol-5-carboxamide], “xxx (xxx > 100)”.
